Results reported in paper PMC7067653 (Bioorganic & medicinal chemistry letters, 2020).

Legend:
[1] = target: human dopamine D1 receptor (Homo sapiens, UniProt P21728); assay: Binding affinity at human dopamine D1 receptor; details: amide versus aniline precursor
[2] = target: human dopamine D2 receptor (Homo sapiens, UniProt P14416); assay: Binding affinity at human dopamine D2 receptor; details: triplicate; na = not active (< 50% inhibition in a primary assay)
[3] = target: T1, human serotonin 5-HT1A receptor (Homo sapiens, UniProt P08908); assay: Binding affinity at human serotonin 5-HT1A receptor; details: triplicate; na = not active (< 50% inhibition in a primary assay)
T1 sequence (P08908 1-422): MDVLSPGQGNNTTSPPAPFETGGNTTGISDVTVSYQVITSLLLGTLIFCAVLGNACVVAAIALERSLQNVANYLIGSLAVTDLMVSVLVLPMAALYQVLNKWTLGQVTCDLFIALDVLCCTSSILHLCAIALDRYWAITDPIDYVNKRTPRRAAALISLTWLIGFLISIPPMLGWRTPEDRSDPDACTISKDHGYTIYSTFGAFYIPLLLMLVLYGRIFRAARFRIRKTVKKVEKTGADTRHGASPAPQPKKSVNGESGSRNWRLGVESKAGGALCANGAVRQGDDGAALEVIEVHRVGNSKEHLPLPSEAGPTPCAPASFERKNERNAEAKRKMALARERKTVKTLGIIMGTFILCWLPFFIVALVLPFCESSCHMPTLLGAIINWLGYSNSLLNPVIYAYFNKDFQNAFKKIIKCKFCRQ

Sequence of human dopamine D1 receptor (P21728 whole entry): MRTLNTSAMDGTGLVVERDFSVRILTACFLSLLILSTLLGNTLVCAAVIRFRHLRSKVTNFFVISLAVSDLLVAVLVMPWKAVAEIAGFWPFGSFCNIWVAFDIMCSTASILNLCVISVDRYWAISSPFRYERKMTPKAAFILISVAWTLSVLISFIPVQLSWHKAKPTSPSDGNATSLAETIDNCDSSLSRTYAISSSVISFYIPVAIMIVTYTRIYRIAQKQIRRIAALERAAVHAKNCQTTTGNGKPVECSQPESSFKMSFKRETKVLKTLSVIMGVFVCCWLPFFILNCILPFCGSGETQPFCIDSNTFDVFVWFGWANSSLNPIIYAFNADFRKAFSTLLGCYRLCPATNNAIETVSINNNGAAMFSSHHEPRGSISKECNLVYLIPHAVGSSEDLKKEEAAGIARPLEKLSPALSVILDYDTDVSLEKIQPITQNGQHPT
Sequence of human dopamine D2 receptor (P14416 whole entry): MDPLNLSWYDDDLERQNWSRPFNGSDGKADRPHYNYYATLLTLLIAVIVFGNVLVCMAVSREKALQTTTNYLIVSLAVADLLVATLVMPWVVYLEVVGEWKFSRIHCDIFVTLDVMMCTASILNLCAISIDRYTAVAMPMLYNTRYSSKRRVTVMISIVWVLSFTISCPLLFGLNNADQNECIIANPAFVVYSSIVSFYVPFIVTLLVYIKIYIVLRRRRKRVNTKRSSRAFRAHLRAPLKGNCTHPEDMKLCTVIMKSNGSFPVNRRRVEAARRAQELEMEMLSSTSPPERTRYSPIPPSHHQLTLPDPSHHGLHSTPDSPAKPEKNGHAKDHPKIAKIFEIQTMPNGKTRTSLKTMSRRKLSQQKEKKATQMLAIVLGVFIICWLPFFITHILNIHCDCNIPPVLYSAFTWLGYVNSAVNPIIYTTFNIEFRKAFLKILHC

With `C#CCOc1c(OC)cc2c3c1-c1cc(NC(C)=O)ccc1CC3N(C)CC2` (stereo not shown) [Compound 20c] the “fold increase in D1 receptor affinity on N-acylation” value [1] was no more than 12 fold.

For `C=CCOc1c(OC)cc2c3c1-c1cc(NC(C)=O)ccc1CC3N(C)CC2` (stereo not shown) [Compound 20b], the “fold increase in D1 receptor affinity on N-acylation” value [1] was no more than 12 fold and the “Ki D2” value [2] was “no D2 receptor affinity”.

In the case of `C=CCOc1c(OC)cc2c3c1-c1cc(N)ccc1CC3N(C)CC2` (stereo not shown) [Compound 19d], the “Ki 5-HT1A” value [3] is reported as “no affinity”.
